From article PMC7504721, “Targeting the Initiator Protease of the Classical Pathway of Complement Using Fragment-Based Drug Discovery” (Molecules, 2020)

Biological target: T1, C1r proenzyme (Homo sapiens, UniProt P00736)
T1 construct: purchased Complement Technology (CompTech)
T1 sequence (P00736 18-705): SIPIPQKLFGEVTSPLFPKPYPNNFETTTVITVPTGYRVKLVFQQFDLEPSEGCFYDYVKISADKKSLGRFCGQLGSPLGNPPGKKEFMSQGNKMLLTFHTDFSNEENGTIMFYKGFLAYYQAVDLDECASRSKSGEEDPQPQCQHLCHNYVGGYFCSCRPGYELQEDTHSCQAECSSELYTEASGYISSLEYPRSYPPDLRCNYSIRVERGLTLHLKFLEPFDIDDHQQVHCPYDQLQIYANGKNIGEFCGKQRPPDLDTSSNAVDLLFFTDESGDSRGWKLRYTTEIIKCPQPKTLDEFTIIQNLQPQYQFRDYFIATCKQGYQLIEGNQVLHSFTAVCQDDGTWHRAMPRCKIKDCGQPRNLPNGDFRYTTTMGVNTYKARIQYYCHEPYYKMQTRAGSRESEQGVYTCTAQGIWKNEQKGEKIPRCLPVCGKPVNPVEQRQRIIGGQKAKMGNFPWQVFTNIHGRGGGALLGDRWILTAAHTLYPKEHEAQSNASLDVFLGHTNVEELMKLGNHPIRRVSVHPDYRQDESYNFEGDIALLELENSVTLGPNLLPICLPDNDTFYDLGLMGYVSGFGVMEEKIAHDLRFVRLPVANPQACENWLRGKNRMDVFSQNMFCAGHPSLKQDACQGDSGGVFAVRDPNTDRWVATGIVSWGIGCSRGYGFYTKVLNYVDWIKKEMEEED
Experiment: C1r proenzyme activation (autoactivation) assay with Z-Gly-Arg-sBzl substrate
Type: biochemical
Settings: 10 mM compound, 37 °C, 1 h
Description: Figure 6 CMP-1696 structure activity relationship. (A) CMP-1696 was redocked onto C1r-CCP2-SP (PDB: 1MD8, grey surface representation) and the top nine scored poses are shown. All CMP-1696 poses dock into the S1 subsite (cyan) near the catalytic triad (blue). (B) C1r autoactivation assay. C1r proenzyme undergoes time-dependent autoactivation at 37 °C. Autoactivation was measured using a synthetic substrate for C1r enzyme. The reaction progress of vehicle control (dashed line) or in the presence of 10 mM CMP-1696 (solid line) was monitored for 1 h. (C) Molecular dynamics (MD) simulations of CMP-1696/C1r-CCP2-SP. Root mean square deviation (RMSD) in nm for each of the CMP-1696 poses measured over the 10 ns molecular dynamics simulation. (D) MM/PBSA energy calculations for each pose in the 10 ns MD simulations indicate that pose 1 is the most energetically favorable. […]
Individual stock solutions of 1 mM of Z-Gly-Arg-sBzl (MP Biomedicals, Irvine, CA, USA) and 5,5′-Dithiobis-(2-nitrobenzoic acid) (DTNB) (Sigma-Aldrich, St. Louis, MO, USA) were made by dissolving powder in DMSO to give 10 mM stocks of each compound, which were then diluted to 1 mM in assay buffer (20 mM HEPES pH 7.3, 140 mM NaCl, 0.005% (v/v) Tween-20, 2 mM CaCl2). […] Plates were read at 450 nm using an EnSight multimode plate reader (Perkin-Elmer, Waltham, MA, USA) and the reaction progress was tracked for 1 h.

## COCc1nc(-c2ccc(OC3CNC3)cc2)no1 [CMP-1696]
  inhibition of autocatalysis of C1r proenzyme: directly inhibited
